Assay results taken from article PMC9475137, “Sesquiterpene lactones from Artemisia vulgaris L. as potential NO inhibitors in LPS-induced RAW264.7 macrophage cells” (Frontiers in Chemistry, 2022).
Entries after “also recorded” stand apart in the source; their conditions may differ.

Assays:
Format in all cases: cell-based
[1] = tested on: NO production in LPS-induced RAW264.7 cells; assay: Inhibition of NO production in LPS-induced RAW264.7 macrophages (Griess reagent); conditions: for IC50: Mus musculus, RAW264.7, pretreated 1 h with compounds (0.25–4 μM), LPS 1 μg/ml 18 h, Mean ± SD, read-out: IC50 (μM), NO inhibition toward LPS-induced RAW264.7 cells
Method: The level of accumulated nitrite in the culture media reflected the level of NO using the classic Griess reagent (Beyotime, Jiangsu, China). The RAW264.7 cells were seeded in a 96-well plate with a 6 ×10^4 cells/ml density for the indicated time. Then, the cells were pretreated for 1 h with test compounds (0.25–4 μM), followed by stimulation with LPS (1 μg/ml) for 18 h. Finally, 50 ul of the culture supernatant was mixed with an equal amount of the Griess reagent, and the optical densities at 570 nm were read using a microplate reader. The nitric oxide concentration of the samples was calculated according to the standard curve.

[2] = Cytotoxicity against RAW264.7 cells (CCK8); conditions: mouse, 24 h incubation, 3.125–200 μM
Method: For the cytotoxicity assay, RAW 264.7 cells were grown in DMEM containing 10% FBS and cultured at 37°C. Then, the cells were seeded in a 96-well plate (1 × 10^4 cells/well) before the cells were incubated for 24 h in various concentrations of compounds (3.125–200 μM). Cell viability was examined using a CCK8-kit. The CCK8 solution (5 µl) was added to each well and incubated for 1–2 h at 37°C. The OD value at 450 nm was quantified by Graphpad software, and the corresponding 50% cytotoxic concentration (CC50) of the compounds was subsequently obtained.

iNOS = iNOS expression in LPS-induced RAW264.7 cells (quantitative real-time PCR and Western blotting); conditions: LPS-induced RAW264.7 macrophages; qPCR and Western blotting; compound 1 at 4 μM compared with dexamethasone
Method: (§1) RAW264.7 cells were seeded in a six-well plate (10 × 10^5 cells/well) for the indicated time. Cells were pretreated with compound 1 (0.5, 1, and 4 μM) for 1 h and then stimulated with LPS (1 ug/mL) for 18 h. Total cellular RNA was extracted with Trizol reagent (TIANGEN, Beijing, China). One microgram of RNA per sample was reverse-transcribed into cDNA using the PrimeScript RT Reagent Kit (TAKARA, Dalian, China). qPCR assays were performed by the CFX96 Touch Real-Time PCR Detection System (Bio-Rad). The following primers were used: iNOS (forward, 5′-AAACCCCAGGTGCTATTCCC-3′; reverse, 5′-TGGGTCCTCTGGTCAAACTC-3′), COX-2 (forward, 5′-ATTCCAAACCAGCAGACTCATA-3′; reverse, CTTGAGTTTGAAGTGGTAACCG-3′), and GAPDH (forward, 5′- GTCATTGAGAGCAATGCCAG-3′; reverse, 5′-GTGTTCCTACCCCCAATGTG-3′). […]
(§2) RAW264.7 cells with the indicated treatment were harvested and treated in a RIPA lysis buffer (Beyotime, Shanghai, China) containing a protease and phosphatase inhibitor cocktail (Beyotime, Shanghai, China) to obtain the lysates. Then, the total proteins were measured using the bicinchoninic acid (BCA) protein assay kit (Beyotime, Shanghai, China) and regulated by a loading buffer and the RIPA lysis buffer. […] Finally, the protein bands were detected using the ImageJ software (Bio-Rad, Hercules, CA, United States).

COX-2 = COX-2 expression in LPS-induced RAW264.7 cells (quantitative real-time PCR and Western blotting); conditions: LPS-induced RAW264.7 macrophages; qPCR and Western blotting; compound 1 at 4 μM compared with dexamethasone
Method: as §1, §2

SMILES	IC50 [1] [µM]	CC50 at 24 h [2] [µM]	expression of iNOS (iNOS)	NO production inhibitory effect, in words (ranking / comparison with positive control dexamethasone) ([1]; LPS-stimulated RAW264.7 cells)	expression of COX-2 (COX-2)
C=C1C(=O)OC2C1CCC(C)(O)C1(O)C(Cl)C3OC3(C)C21 (stereo not drawn) [Compound 12, Artemvulactone S]	2.7 ± 0.5	> 40	–	–	–
C=C1C(=O)O[C@H]2[C@H]1[C@@H](OC(=O)C(C)C)CC(=C)[C@]1(O)CC=C(C)[C@H]21 [Compound 17, 8-epi-isobutyrylrupicolin B]	1.5 ± 0.1	> 20	–	–	–
C=C1C(=O)O[C@@H]2[C@H]3C(C)=CC(=O)C3=C(C)C[C@H](OC(C)=O)[C@@H]12 [Compound 22, Dehydromatricarin]	1.8 ± 0.2	> 10	–	–	–
C=C1C(=O)O[C@H]2[C@H]1[C@@H](OC(C)=O)CC(C)=C1C[C@H]3O[C@@]3(C)[C@@H]12 [Compound 21, (+)-Arteglasin A]	1.2 ± 0.2	> 20	–	–	–
C=C1C(=O)O[C@@H]2[C@H]3C(C)=CC(=O)C3=C(C)CC[C@@H]12 [Compound 20, dehydroleucodine]	1.8 ± 0.1	> 70	–	–	–
C[C@@H]1C[C@H]2[C@@H]3CCC4=CC(=O)C=C[C@]4(C)[C@@]3(F)[C@@H](O)C[C@]2(C)[C@@]1(O)C(=O)CO [Dexamethasone, reference compound]	4.3 ± 0.3	–	–	–	–
C=C1C(=O)OC2C1C(OC(=O)CC)CC(C)(OC)C1C(=O)C=C(C)C21 (stereo not drawn) [Compound 10, Artemvulactone Q]	2.1 ± 0.1	> 10	–	–	–
C=C1C(=O)O[C@H]2[C@H]1[C@@H](OC(=O)C=C(C)C)CC(=C)[C@]1(O)CC=C(C)[C@H]21 [Compound 14, 1α-hydroxy-8α-senecioyloxy-3(4),10(14),11(13)-trienguai-12,6α-olide]	1.4 ± 0.2	> 15	–	–	–
C=C1C(=O)O[C@H]2[C@H]1[C@@H](OC(=O)C(C)CC)CC(=C)[C@]1(O)CC=C(C)[C@H]21 (stereo partly drawn) [Compound 13, 1α-hydroxy-8α-methylbutyroxy-3(4),10(14),11(13)-trienguai-12,6α-olide]	1.5 ± 0.1	> 15	–	–	–
C=C1C(=O)O[C@H]2[C@H]1[C@@H](OC(=O)CC(C)C)CC(=C)[C@]1(O)CC=C(C)[C@H]21 [Compound 4, Artemvulactone K]	3.6 ± 0.1	> 20	–	–	–
C=C1C(=O)O[C@H]2[C@H]1[C@@H](OC(=O)/C(C)=C\C)CC(=C)[C@]1(O)CC=C(C)[C@H]21 [Compound 7, Artemvulactone N]	2.1 ± 0.6	> 20	–	–	–
C=C1CC(OC(=O)C(C)=CC)C2C(C)C(=O)OC2C2C(C)=CCC12O (stereo not drawn) [Compound 5, Artemvulactone L]	> 10	> 100	–	–	–
C=C1C(=O)O[C@H]2[C@H]1[C@@H](OC(=O)/C(C)=C\C)CC(=C)[C@]1(O)C[C@H]3O[C@@]3(C)[C@H]21 [Compound 16, 8-angeloyloxy-1α-hydroxy-3α, 4α-epoxy-5α, 7αH-10(14), 11(13)-guaiadien-12,6α-olide]	1.1 ± 0.2	> 10	–	–	–
C=C1C(=O)O[C@H]2[C@H]1[C@@H](OC(=O)/C(C)=C\C)C=C(C)[C@]1(O)CC=C(C)[C@H]21 [Compound 1, Artemvulactone H]	1.1 ± 0.1	> 10	reduced more expressions of iNOS and COX-2 than the positive drug; also recorded: suppressed	most active	reduced more expressions of iNOS and COX-2 than the positive drug; also recorded: suppressed
C=C1C(=O)O[C@H]2[C@H]1[C@@H](OC(=O)C(C)C)C=C(C)[C@]1(O)CC=C(C)[C@H]21 [Compound 18, 8-epi-isobutyrylrupicolin]	1.1 ± 0.1	> 20	–	–	–
C=C1C(=O)O[C@H]2[C@H]1[C@@H](OC(=O)C(C)C)C=C(C)[C@]1(O)C[C@H]3O[C@@]3(C)[C@H]21 [Compound 8, Artemvulactone O]	3.2 ± 0.1	> 20	–	–	–
C=C1C(=O)O[C@H]2[C@H]1[C@@H](OC(=O)C(C)CC)C=C(C)[C@]1(O)CC=C(C)[C@H]21 (stereo partly drawn) [Compound 2, Artemvulactone I]	1.2 ± 0.3	> 10	–	–	–
C=C1C(=O)O[C@H]2[C@H]1[C@@H](OC(=O)/C(C)=C/C)CC(=C)[C@]1(O)CC=C(C)[C@H]21 [Compound 15, 8-epi-Tiglylrupicolin B]	1.2 ± 0.1	> 10	–	–	–
C=C1C(=O)O[C@H]2[C@H]1[C@@H](OC(=O)CC(C)C)C=C(C)[C@]1(O)CC=C(C)[C@H]21 [Compound 3, Artemvulactone J]	2.8 ± 0.1	> 10	–	–	–
C=C1C(=O)O[C@@H]2[C@H]3C(C)=CC(=O)C3=C(C)C[C@H](OC(=O)CC)[C@@H]12 [Compound 9, Artemvulactone P]	1.9 ± 0.8	> 20	–	–	–
C=C1C(=O)O[C@H]2[C@H]1[C@@H](OC(=O)CC(C)C)CC(=C)[C@]1(O)C[C@H]3O[C@@]3(C)[C@H]21 [Compound 19, 3α,4α-epoxyrupicolin E]	1 ± 0.2	> 25	–	–	–
C=C1C(=O)O[C@H]2[C@H]1[C@@H](OC(=O)CC)C=C(C)[C@]1(O)C[C@H]3O[C@@]3(C)[C@H]21 [Compound 11, Artemvulactone R]	1.9 ± 0.4	> 15	–	–	–
C=C1C(=O)O[C@H]2[C@H]1[C@@H](OC(=O)C(C)C)CC(=C)[C@]1(O)C[C@H]3O[C@@]3(C)[C@H]21 [Compound 6, Artemvulactone M]	3.1 ± 0.1	> 20	–	–	–
